{"source": "patent US10071130B2", "about": "“Methods and compositions related to Hsp90 inhibitors and breast cancer” (The University of Chicago, priority 2013, dated 2018)", "format_in_all_cases": "cell-based", "key": {"AR target gene TMPRSS2": {"tested_on": "AR target gene TMPRSS2", "experiment": "qRT-PCR of AR target gene transcript"}, "AR protein": {"tested_on": "AR protein", "experiment": "Western blot of AR protein after Hsp90 inhibitor treatment of TNBC cell lines", "conditions": "50 nM, 8 hrs", "experimental": "(§1) TNBC cell lines were pre-treated for 2 hours with dexamethasone (100 nM) followed by ganetespib (50 nM). Protein and transcript levels were analyzed using Western blot and qRT-PCR respectively."}, "[1]": {"tested_on": "GR-α translational isoforms", "experiment": "Western blot of GR protein after Hsp90 inhibitor treatment of TNBC cell lines", "conditions": "50 nM, 8 hrs", "experimental": "as §1"}, "[2]": {"tested_on": "GR target gene transcripts (SGK1 and MKP1/DUSP1)", "experiment": "qRT-PCR of GR target gene transcripts in TNBC cell lines", "conditions": "100 nM dex 2 hours, then ganetespib 50 nM", "experimental": "as §1\nThis induction was reduced following ganetespib (50 nM) treatment."}, "[3]": {"tested_on": "GR target genes in MDA-MB-231", "experiment": "Multiplex RT-PCR assay of GR target genes", "conditions": "MDA-MB-231, Veh/Veh = 1", "experimental": "The multiplex RT-PCR assay was performed to discover GR target genes that are affected by HSP90 inhibitor treatment of a triple-negative breast cancer cell line, MDA-MB-231."}}}
{"smiles": "CC(C)c1cc(-c2n[nH]c(=O)n2-c2ccc3c(ccn3C)c2)c(O)cc1O", "note": "[ganetespib]", "values": [{"measurement": "Androgen-induced expression of the AR target gene TMPRSS2", "setting": "AR target gene TMPRSS2; R1881 1 nM, concomitant ganetespib 50 nM", "value": "decreased"}, {"measurement": "AR protein level", "setting": "AR protein", "value": "depleted"}, {"measurement": "GR-α translational isoforms protein level", "setting": "[1]", "value": "depleted"}, {"measurement": "Dexamethasone induction of GR target gene transcripts (SGK1 and MKP1/DUSP1)", "setting": "[2]", "value": "reduced"}]}
{"smiles": "C[C@]1(O)CC[C@H]2[C@@H]3CCC4=CC(=O)CCC4=C3C=C[C@@]21C", "note": "[R1881]", "values": [{"measurement": "Expression of the AR target gene TMPRSS2", "setting": "AR target gene TMPRSS2; R1881 1 nM pre-treatment for 2 hours", "value": "induced"}]}
{"smiles": "C[C@@H]1C[C@H]2[C@@H]3CCC4=CC(=O)C=C[C@]4(C)[C@@]3(F)[C@@H](O)C[C@]2(C)[C@@]1(O)C(=O)CO", "note": "[dexamethasone]", "values": [{"measurement": "ANGPTL4 transcript level", "setting": "[3]", "value": 8.5}, {"measurement": "BCL6 transcript level", "setting": "[3]", "value": 2.6}, {"measurement": "CALCR transcript level", "setting": "[3]", "value": 4.3}, {"measurement": "CEBPB transcript level", "setting": "[3]", "value": 4.1}, {"measurement": "DDIT4 transcript level", "setting": "[3]", "value": 2.9}, {"measurement": "DUSP1 transcript level", "setting": "[3]", "value": 3.7}, {"measurement": "EDN1 transcript level", "setting": "[3]", "value": 2.3}, {"measurement": "ERRFI1 transcript level", "setting": "[3]", "value": 3.4}, {"measurement": "FKBP5 transcript level", "setting": "[3]", "value": 15.5}, {"measurement": "GLUL transcript level", "setting": "[3]", "value": 1.5}, {"measurement": "IL6R transcript level", "setting": "[3]", "value": 1.9}, {"measurement": "KLF9 transcript level", "setting": "[3]", "value": 9.5}, {"measurement": "KLF13 transcript level", "setting": "[3]", "value": 2.5}, {"measurement": "LOX transcript level", "setting": "[3]", "value": 2.4}, {"measurement": "MT1E transcript level", "setting": "[3]", "value": 2.7}, {"measurement": "MT2A transcript level", "setting": "[3]", "value": 3.0}, {"measurement": "NFKBIA transcript level", "setting": "[3]", "value": 2.0}, {"measurement": "PER1 transcript level", "setting": "[3]", "value": 12.7}, {"measurement": "RHOB transcript level", "setting": "[3]", "value": 5.6}, {"measurement": "SESN1 transcript level", "setting": "[3]", "value": 1.4}, {"measurement": "SGK1 transcript level", "setting": "[3]", "value": 2.9}, {"measurement": "SLC19A2 transcript level", "setting": "[3]", "value": 2.0}, {"measurement": "SLC22A5 transcript level", "setting": "[3]", "value": 1.3}, {"measurement": "TNFAIP3 transcript level", "setting": "[3]", "value": 2.2}, {"measurement": "TSC22D3 transcript level", "setting": "[3]", "value": 22.8}, {"measurement": "USP2 transcript level", "setting": "[3]", "value": 3.1}, {"measurement": "XDH transcript level", "setting": "[3]", "value": 1.3}, {"measurement": "ZFP36 transcript level", "setting": "[3]", "value": 4.3}]}
{"smiles": "CCNC(=O)c1noc(-c2cc(C(C)C)c(O)cc2O)c1-c1ccc(CN2CCOCC2)cc1", "note": "[NVP-AUY922]", "values": [{"measurement": "AR protein level", "setting": "AR protein", "value": "depleted"}, {"measurement": "GR-α translational isoforms protein level", "setting": "[1]", "value": "depleted"}]}
